ChEMBL document CHEMBL3885881, “DrugMatrix”

Species on record: Rattus norvegicus
Test: DrugMatrix - Regimen: Daily Repeat
Assay type: toxicity, organism-based, Sprague-Dawley
Parameters: regimen Daily Repeat, gender Male, age 6-8 weeks
Conditions: in vivo, po, route oral GAVAGE, vehicle .5 % CMC; for ABSOLUTE BASOPHIL / ABSOLUTE EOSINOPHIL / ABSOLUTE LYMPHOCYTE / ABSOLUTE MONOCYTE / ABSOLUTE SEGMENTED NEUTROPHIL / BASOPHIL / EOSINOPHIL / ERYTHROCYTE COUNT / HEMATOCRIT / HEMOGLOBIN / LEUKOCYTE COUNT / LYMPHOCYTE / MEAN CORPUSCULAR HEMOGLOBIN / MEAN CORPUSCULAR HEMOGLOBIN CONCENTRATION / MEAN CORPUSCULAR VOLUME / MONOCYTE / NEUTROPHIL / NUCLEATED RED BLOOD CELLS / PLATELET COUNT: tissue Blood; for ALANINE AMINOTRANSFERASE / ALBUMIN / ALKALINE PHOSPHATASE / ASPARTATE AMINOTRANSFERASE / BLOOD UREA NITROGEN / CARBON DIOXIDE / CHLORIDE / CHOLESTEROL / CREATINE PHOSPHOKINASE / CREATININE / GLUCOSE / LACTATE DEHYDROGENASE / LIPASE / PHOSPHORUS / POTASSIUM / SODIUM / TOTAL BILIRUBIN / TOTAL PROTEIN / URIC ACID: tissue Plasma
[1] = 0 mg/kg, 72 h, dose level Control, time 3 day
[2] = 0 mg/kg, 120 h, dose level Control, time 5 day
[3] = 50 mg/kg, 72 h, dose level Low, time 3 day

CC(=O)O[C@]1(C(C)=O)CC[C@H]2[C@@H]3C=C(Cl)C4=CC(=O)[C@@H]5C[C@@H]5[C@]4(C)[C@H]3CC[C@@]21C [CYPROTERONE ACETATE]
ABSOLUTE BASOPHIL [1]: 0 CELLS/uL | ABSOLUTE EOSINOPHIL [1]: 0 CELLS/uL | ABSOLUTE LYMPHOCYTE [1]: 12191.17 CELLS/uL | ABSOLUTE MONOCYTE [1]: 183.17 CELLS/uL | ABSOLUTE SEGMENTED NEUTROPHIL [1]: 1192.33 CELLS/uL | BASOPHIL [1]: 0% | EOSINOPHIL [1]: 0% | ERYTHROCYTE COUNT [1]: 5.51 x10E6/uL | HEMATOCRIT [1]: 35.45% | HEMOGLOBIN [1]: 13.82 G/DL | LEUKOCYTE COUNT [1]: 13.57 x10E3/uL | LYMPHOCYTE [1]: 89.83% | MEAN CORPUSCULAR HEMOGLOBIN [1]: 25.1 pg | MEAN CORPUSCULAR HEMOGLOBIN CONCENTRATION [1]: 38.98 G/DL | MEAN CORPUSCULAR VOLUME [1]: 64.42 fL | MONOCYTE [1]: 1.33% | NEUTROPHIL [1]: 8.83% | NUCLEATED RED BLOOD CELLS [1]: 0 /100WBC | PLATELET COUNT [1]: 1118.17 x10E3/uL | ALANINE AMINOTRANSFERASE [1]: 55 u/L | ALBUMIN [1]: 4.15 G/DL | ALKALINE PHOSPHATASE [1]: 449.5 u/L | ASPARTATE AMINOTRANSFERASE [1]: 112.83 u/L | BLOOD UREA NITROGEN [1]: 17.33 mg/dL | CARBON DIOXIDE [1]: 29.5 mmol/L | CHLORIDE [1]: 101 MEQ/L | CHOLESTEROL [1]: 70 mg/dL | CREATINE PHOSPHOKINASE [1]: 1325.83 u/L | CREATININE [1]: 0.18 mg/dL | GLUCOSE [1]: 171.5 mg/dL | LACTATE DEHYDROGENASE [1]: 386 u/L | LIPASE [1]: 10 u/L | PHOSPHORUS [1]: 11.57 mg/dL | POTASSIUM [1]: 6.21 MEQ/L | SODIUM [1]: 141.65 MEQ/L | TOTAL BILIRUBIN [1]: 0.15 mg/dL | TOTAL PROTEIN [1]: 5.75 G/DL | URIC ACID [1]: 1.28 mg/dL | ABSOLUTE BASOPHIL [2]: 0 CELLS/uL | ABSOLUTE EOSINOPHIL [2]: 138.17 CELLS/uL | ABSOLUTE LYMPHOCYTE [2]: 13283.17 CELLS/uL | ABSOLUTE MONOCYTE [2]: 303.83 CELLS/uL | ABSOLUTE SEGMENTED NEUTROPHIL [2]: 1308.17 CELLS/uL | BASOPHIL [2]: 0% | EOSINOPHIL [2]: 1% | ERYTHROCYTE COUNT [2]: 5.32 x10E6/uL | HEMATOCRIT [2]: 33.8% | HEMOGLOBIN [2]: 13.63 G/DL | LEUKOCYTE COUNT [2]: 15.03 x10E3/uL | LYMPHOCYTE [2]: 88.33% | MEAN CORPUSCULAR HEMOGLOBIN [2]: 25.68 pg | MEAN CORPUSCULAR HEMOGLOBIN CONCENTRATION [2]: 40.35 G/DL | MEAN CORPUSCULAR VOLUME [2]: 63.67 fL | MONOCYTE [2]: 1.83% | NEUTROPHIL [2]: 8.83% | NUCLEATED RED BLOOD CELLS [2]: 0 /100WBC | PLATELET COUNT [2]: 1097.5 x10E3/uL | ALANINE AMINOTRANSFERASE [2]: 54.5 u/L | ALBUMIN [2]: 4.27 G/DL | ALKALINE PHOSPHATASE [2]: 337 u/L | ASPARTATE AMINOTRANSFERASE [2]: 94.67 u/L | BLOOD UREA NITROGEN [2]: 17 mg/dL | CARBON DIOXIDE [2]: 28.33 mmol/L | CHLORIDE [2]: 101.5 MEQ/L | CHOLESTEROL [2]: 71.33 mg/dL | CREATINE PHOSPHOKINASE [2]: 628.17 u/L | CREATININE [2]: 0.19 mg/dL | GLUCOSE [2]: 177.83 mg/dL | LACTATE DEHYDROGENASE [2]: 500.5 u/L | LIPASE [2]: 9.5 u/L | PHOSPHORUS [2]: 12.3 mg/dL | POTASSIUM [2]: 5.63 MEQ/L | SODIUM [2]: 143.03 MEQ/L | TOTAL BILIRUBIN [2]: 0.2 mg/dL | TOTAL PROTEIN [2]: 6.02 G/DL | URIC ACID [2]: 1.5 mg/dL | ABSOLUTE BASOPHIL [3]: 0 CELLS/uL | ABSOLUTE EOSINOPHIL [3]: 48.33 CELLS/uL | ABSOLUTE LYMPHOCYTE [3]: 14035.67 CELLS/uL | ABSOLUTE MONOCYTE [3]: 48.33 CELLS/uL | ABSOLUTE SEGMENTED NEUTROPHIL [3]: 1667.67 CELLS/uL | BASOPHIL [3]: 0% | EOSINOPHIL [3]: 0.33% | ERYTHROCYTE COUNT [3]: 5.31 x10E6/uL | HEMATOCRIT [3]: 35.1% | HEMOGLOBIN [3]: 13.77 G/DL | LEUKOCYTE COUNT [3]: 15.8 x10E3/uL | LYMPHOCYTE [3]: 88.67% | MEAN CORPUSCULAR HEMOGLOBIN [3]: 25.93 pg | MEAN CORPUSCULAR HEMOGLOBIN CONCENTRATION [3]: 39.23 G/DL | MEAN CORPUSCULAR VOLUME [3]: 66.13 fL | MONOCYTE [3]: 0.33% | NEUTROPHIL [3]: 10.67% | NUCLEATED RED BLOOD CELLS [3]: 0 /100WBC | PLATELET COUNT [3]: 1211 x10E3/uL | ALANINE AMINOTRANSFERASE [3]: 71.67 u/L | ALBUMIN [3]: 4.43 G/DL | ALKALINE PHOSPHATASE [3]: 396.67 u/L | ASPARTATE AMINOTRANSFERASE [3]: 84.67 u/L | BLOOD UREA NITROGEN [3]: 21.67 mg/dL | CARBON DIOXIDE [3]: 28 mmol/L | CHLORIDE [3]: 100.67 MEQ/L | CHOLESTEROL [3]: 88.33 mg/dL | CREATINE PHOSPHOKINASE [3]: 202.33 u/L | CREATININE [3]: 0.15 mg/dL | GLUCOSE [3]: 155.67 mg/dL | LACTATE DEHYDROGENASE [3]: 202 u/L | LIPASE [3]: 10.67 u/L | PHOSPHORUS [3]: 11.13 mg/dL | POTASSIUM [3]: 6.55 MEQ/L | SODIUM [3]: 141.9 MEQ/L | TOTAL BILIRUBIN [3]: 0.13 mg/dL | TOTAL PROTEIN [3]: 6.27 G/DL | URIC ACID [3]: 1.47 mg/dL
